Measured values from patent US20230210771A1, “COMPOSITIONS FOR THE DELIVERY OF THERAPEUTIC AGENTS AND METHODS OF USE AND MAKING THEREOF” (priority 2020, published 2023).

assay: Terpene concentration (HPLC, GC-FID); format: physicochemical; settings: terpene content of hemp distillate + alpha-pinene lipid nanoparticle formulation (Example 34), diluted to theoretical 12 mg/mL CBD
Procedure: A 5 Liter manufacturing batch was analyzed by high pressure liquid chromatography (HPLC) to measure Terpenes present in the sample.
When all ingredients were dissolved, the solvent was removed to form a dried composition. The resulting particle size and zeta potential were determined using a Malvern ZetaSizer and cannabinoid concentrations were determined by UPLC. Terpene concentrations were determined by GC-FID.

| SMILES | Measured Concentration (mg/g) of terpene | Measured Concentration (w/w %) of terpene |
| --- | --- | --- |
| C=C/C(C)=C/CC=C(C)C [e-Ocimene] | <LOQ | <LOQ |
| C=C1C2CCC(C2)C1(C)C (centres unmarked) [Camphene] | 0.046 mg/g | 0.005% |
| C=C/C(C)=C\CC=C(C)C [z-Ocimene] | <LOQ | <LOQ |
| CC(C)=CCC[C@](C)(O)[C@@H]1CC=C(C)CC1 [alpha-Bisabolol] | 0.062 mg/g | 0.006% |
| CC12CCC(CC1)C(C)(C)O2 [Eucalyptol] | <LOQ | <LOQ |
| CC(C)=CCC/C(C)=C/CO [Geraniol] | <LOQ | <LOQ |
| C=CC(C)(O)CCC=C(C)C (centres unmarked) [Linalool] | <LOQ | <LOQ |
| CC1=CCC2C(C1)C2(C)C (centres unmarked) [Carene] | <LOQ | <LOQ |
| C=CC(=C)CCC=C(C)C [beta-Myrecene] | <LOQ | <LOQ |
| CC1=CCC2CC1C2(C)C (stereo not drawn) [alpha-Pinene] | 5.205 mg/g | 0.521% |
| C=C1CCC2CC1C2(C)C (stereo not drawn) [beta-Pinene] | 0.026 mg/g | 0.003% |
| C=C1CC[C@H]2O[C@]2(C)CC[C@@H]2[C@@H]1CC2(C)C [Caryophyllene Oxide] | <LOQ | <LOQ |
| CC1=CCC(C(C)C)=CC1 [y-Terpinene] | <LOQ | <LOQ |
| C=C(C)[C@H]1CC=C(C)CC1 [delta-Limonene] | <LOQ | <LOQ |
| C[C@H]1CC[C@@H](C(C)(C)O)CC2=C1CC[C@@H]2C [alpha-Guaiol] | 0.023 mg/g | 0.002% |
| C=CC(C)(O)CC/C=C(/C)CCC=C(C)C (stereo not drawn) [cis-Nerolidol] | <LOQ | <LOQ |
| C=C1CC/C=C(\C)CC[C@@H]2[C@@H]1CC2(C)C [Beta-Caryophyllene] | 0.026 mg/g | 0.003% |
| C=CC(C)(O)CC/C=C(\C)CCC=C(C)C (stereo not drawn) [trans-Nerolidol] | <LOQ | <LOQ |
| C=C(C)[C@@H]1CC[C@@H](C)C[C@H]1O [Isopulegol] | <LOQ | <LOQ |
| C/C1=C\CC/C(C)=C/CC(C)(C)/C=C/C1 [Humulene] | <LOQ | <LOQ |
| CC1=CCC(=C(C)C)CC1 [Terpinolene] | <LOQ | <LOQ |
| Cc1ccc(C(C)C)cc1 [p-Cymene] | <LOQ | <LOQ |
